Each structure is given as a SMILES string.

Seven compounds from patent US20090197880A1 (Genelabs Technologies, Inc., priority 2007, published 2009) can be followed below.

A short description of the assay: HCV replicon assay (luciferase) in ET (Huh-lucubineo-ET) cell line. The assay is classed as cell-based. The following applies: Hepatitis C virus; tested at 10 μM; inhibition of replication relative to no compound control; ET replicon cells, luciferase 48-72 hours; read-out: % inhition at 10 μM. On the technique in general: In antiviral work, replicon cells carry a viral genome segment that copies itself.

Turning to `Cc1cc(C#Cc2ccc(-c3cc(Cn4cc5nc(-c6cccc(F)c6F)nc-5cn4)on3)cc2)cc(C)n1` [Compound 310, 2-(2,3-Difluoro-phenyl)-5-{3-[4-(2,6-dimethyl-pyridin-4-ylethynyl)-phenyl]-isoxazol-5-ylmethyl}-5H-imidazo[4,5-d]pyridazine], the inhibition at 10 µM is 99.4%.
For the compound `CCCCCc1ccc(-c2cc(Cn3cc4nc(-c5cccc(F)c5F)nc-4cn3)on2)cc1` [Compound 191, 2-(2,3-Difluoro-phenyl)-5-[3-(4-pentyl-phenyl)-isoxazol-5-ylmethyl]-5H-imidazo[4,5-d]pyridazine], the inhibition at 10 µM was 99.8%.
The figure for `CC(C)Cc1ccc(-c2cc(Cn3cc4nc(-c5cccc(F)c5F)nc-4cn3)on2)cc1` [Compound 190, 2-(2,3-Difluoro-phenyl)-5-[3-(4-isobutyl-phenyl)-isoxazol-5-ylmethyl]-5H-imidazo[4,5-d]pyridazine] is 99.9%; for `Fc1cc(C(F)(F)F)ccc1-c1cc(Cn2cc3nc(-c4ccccc4F)nc-3cn2)on1` [Compound 279, 2-(2-Fluoro-phenyl)-5-[3-(2-fluoro-4-trifluoromethyl-phenyl)-isoxazol-5-ylmethyl]-5H-imidazo[4,5-d]pyridazine] it is 98.9%; for `Oc1ccccc1-c1nc2cnn(Cc3cc(-c4ccc(C(F)(F)F)cc4C(F)(F)F)no3)cc-2n1` [Compound 134, 2-{5-[3-(2,4-Bis-trifluoromethyl-phenyl)-isoxazol-5-ylmethyl]-5H-imidazo[4,5-d]pyridazin-2-yl}-phenol] it is 0.51%.
The figure for `COCCOc1ccc(-c2cc(Cn3cc4nc(-c5cccc(F)c5F)nc-4cn3)on2)cc1` [Compound 195] is 98.8%; for `COc1ccc(-c2cc(Cn3cc4nc(-c5cccc(F)c5F)nc-4cn3)on2)c(C(F)(F)F)c1` [Compound 174, 2-(2,3-Difluoro-phenyl)-5-[3-(4-methoxy-2-trifluoromethyl-phenyl)-isoxazol-5-ylmethyl]-5H-imidazo[4,5-d]pyridazine] it is 99.7%.
